The subject of this experiment is MDA-MB-468 breast. Briefly: NCI tumour cell line growth inhibition, 48 h.

“And” between values parts separate entries of the source, which are not always exact repeats. Equal values may be shown once.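 Interpolation was linear, between the two tested concentrations surrounding the appropriate level; five concentrations were tested over 48 hours in 96-well plates. GI50 is the concentration that inhibits growth by half. TGI marks complete inhibition of growth.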

As to `COc1cc(C(=O)/C=C/c2c(-c3cccs3)nc3ccccn23)cc(OC)c1OC`, the GI50 is 1.72 µM and the TGI was found to be 3.4 µM.
Taken in the same sequence, the figures for `CCCCc1oc2ccccc2c1C(=O)c1cc(I)c(OCCN(CC)CC)c(I)c1` were 1.49 µM and 3.12 µM.
Taken in the same sequence, the figures for `CO[C@H]1/C=C/C[C@H](C)[C@@H](C)S(=O)(=O)NC(=O)c2ccc3c(c2)N(C[C@@H]2CC[C@H]21)C[C@@]1(CCCc2cc(Cl)ccc21)CO3` were 0.166 µM and 0.55 µM.
As for `O=c1[nH]cc(F)c(=O)[nH]1`, the TGI was > 100 µM and 1560 µM.
Turning to `C=C1C(=O)O[C@H]2[C@H]1CC/C(COC(=O)NCc1cccc(OC)c1)=C\CC[C@@]1(C)O[C@@H]21`, the GI50 was 1.29 µM and the TGI turned out to be 3.84 µM.
Taken in the same sequence, the figures for `O=C(Nn1c2c(sc1=NC1CC1)C(=O)c1ccccc1C2=O)c1cc2ccc1CCc1ccc(cc1)CC2` were 2.55 µM and 7.32 µM.
The like results for `O=C1C(Cl)=C(Nc2ccc3c(c2NC2=C(Cl)C(=O)c4ccccc4C2=O)C(=O)c2ccccc2C3=O)C(=O)c2ccccc21` were, in that order, 1.35 µM and 3.85 µM.
Taken in the same sequence, the figures for `CCOC(=O)c1cn2ncnc(Oc3ccc(NC(=O)NCCN(CC)CC)c(Cl)c3)c2c1C` were 9.57 µM and 29 µM.
Take `CN1CCN(c2ccc([N+](=O)[O-])c3no[n+]([O-])c23)CC1`: the GI50 was 0.203 µM and the TGI was 0.821 µM.
Regarding `O=C(Nc1ccc([N+](=O)[O-])cc1)c1cc2ccccc2cc1O`, the GI50 is 0.898 µM and the TGI was found to be 4.74 µM.
The like results for `CCN1CCN(c2nc(C)cc(N(CCCNc3ccnc4cc(Cl)ccc34)Cc3ccco3)n2)CC1` were, in that order, 2.2 µM and 5.28 µM.
The like results for `Cc1ccc(C(=O)Nc2ccccc2C(=O)N/N=C(\c2ccccc2)c2ccccn2)cc1` were, in that order, 0.266 µM and 2.94 µM.
The like results for `CC(=O)O[C@@H]1C(=O)N(c2cnccn2)[C@H]1c1ccccc1[N+](=O)[O-]` were, in that order, 0.376 µM and 4.05 µM.
Turning to `CN(C)S(=O)(=O)c1cccc(-c2nc3sc4c(c3c(=O)[nH]2)CCCC4)c1`, the GI50 was 8.92 µM and the TGI is over 100 µM.
As to `c1ccc([P+](CCC[P+](c2ccccc2)(c2ccccc2)c2ccccc2)(c2ccccc2)c2ccccc2)cc1`, the GI50 was 1.72 µM and the TGI stood at 26.3 µM.
Taken in the same sequence, the figures for `ClC1=C(Cl)C(Cl)=C(Cl)C1=Cc1ccc(Cl)cc1Cl` were 0.257 µM and 0.728 µM.
Taken in the same sequence, the figures for `Cc1cc(Cl)ccc1Nc1nc(C(F)(F)F)ccc1C(=O)N/N=C/c1ccc(N(C)C)cc1` were 0.442 µM and 4.67 µM.
The like results for `COc1ccc(-c2cc3nccn3c(Nc3ncccc3C(N)=O)n2)cc1OC` were, in that order, over 100 µM and over 100 µM.
Turning to `COc1cc(C2c3cc4c(cc3OC(N3CCOCC3)C2C)OCO4)cc(OC)c1OC` (stereo not drawn), the GI50 was 4.15 µM and the TGI was over 100 µM.
For the molecule `COc1cccc2cc(N(C)c3nc(C)nc4ccsc34)ccc12`, the GI50 is under 0.01 µM.
Regarding `CCCCCCCCCCC(CN(CC)CC)C(O)c1ccccc1` (stereo not drawn), the GI50 is 1.52 µM and the TGI stood at 3.21 µM.
In the case of `CC1(C)CC(O)CCCCCCOc2c(CN)cccc2NC(=O)c2nc(cnc2N)-c2ccc(cc2)S1(=O)=O` (stereo not drawn), the GI50 is 0.49 µM and the TGI turned out to be 2.45 µM.
The like results for `Cc1ccc2oc(=O)cc(C3c4ccc([nH]4)C(c4cc(=O)oc5ccc(C)cc45)c4ccc([nH]4)C(c4cc(=O)oc5ccc(C)cc45)c4ccc([nH]4)C(c4cc(=O)oc5ccc(C)cc45)c4ccc3[nH]4)c2c1` (stereo not drawn) were, in that order, 0.0344 µM and 1.86 µM.
As for `C=C(C=O)[C@@H]1CC[C@]2(C(=O)O)CC[C@]3(C)C(CC[C@@H]4[C@@](C)(CCC#N)[C@H](C(=C)C=O)CC[C@]43C)[C@@H]12` (stereo partly drawn), the GI50 is 2.31 µM and the TGI came out at 5.69 µM.
Taken in the same sequence, the figures for `O=C(Nc1cccc(Cl)c1)Nc1nc2ccc([N+](=O)[O-])cc2o1` were 2.26 µM and 5.73 µM.

Values taken from PubChem BioAssay (NCI).
